Assay results reported in ChEMBL document CHEMBL1150976, “The selectivity of protein kinase inhibitors: a further update” (Biochem J, 2007).

Key:
[1] = molecular target: Homeodomain-interacting protein kinase 3 (Homo sapiens) (UniProt Q9H422); test: Percentage HIPK3 activity remaining in the presence of 0.1uM inhibitor
[2] = molecular target: Calcium/calmodulin-dependent protein kinase kinase 2 (Homo sapiens) (UniProt Q96RR4); test: Percentage CaMKKbeta activity remaining in the presence of 0.01uM inhibitor
[3] = molecular target: MAP kinase-activated protein kinase 3 (Homo sapiens) (UniProt Q16644); test: Percentage MAPKAPK3 activity remaining in the presence of 0.01uM inhibitor
[4] = molecular target: T1, Dual specificity tyrosine-phosphorylation-regulated kinase 2 (Homo sapiens) (UniProt Q92630); test: Percentage DYRK2 activity remaining in the presence of 0.01uM inhibitor
T1 sequence (whole entry): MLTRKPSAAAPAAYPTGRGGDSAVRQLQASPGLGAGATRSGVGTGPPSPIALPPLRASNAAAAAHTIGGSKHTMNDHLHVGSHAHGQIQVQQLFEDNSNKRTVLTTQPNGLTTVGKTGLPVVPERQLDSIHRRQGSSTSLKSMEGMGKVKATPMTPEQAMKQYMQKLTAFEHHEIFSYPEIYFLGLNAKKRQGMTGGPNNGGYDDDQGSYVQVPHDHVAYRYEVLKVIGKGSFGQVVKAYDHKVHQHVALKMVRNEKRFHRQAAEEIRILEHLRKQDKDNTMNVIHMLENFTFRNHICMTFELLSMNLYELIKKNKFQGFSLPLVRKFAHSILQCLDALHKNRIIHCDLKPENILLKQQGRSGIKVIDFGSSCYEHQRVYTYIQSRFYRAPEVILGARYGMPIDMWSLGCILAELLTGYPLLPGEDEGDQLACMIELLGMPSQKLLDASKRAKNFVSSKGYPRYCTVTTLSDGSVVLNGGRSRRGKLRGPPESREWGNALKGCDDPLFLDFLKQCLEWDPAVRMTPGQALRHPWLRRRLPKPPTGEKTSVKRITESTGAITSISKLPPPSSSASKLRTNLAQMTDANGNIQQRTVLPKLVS

Rattus norvegicus = species on record: Rattus norvegicus; test: Percentage AMPK activity remaining in the presence of 0.01uM inhibitor
[5] = molecular target: Maternal embryonic leucine zipper kinase (Homo sapiens) (UniProt Q14680); test: Percentage MELK activity remaining in the presence of 0.01uM inhibitor
[6] = molecular target: Serine/threonine-protein kinase PAK 6 (Homo sapiens) (UniProt Q9NQU5); test: Percentage PAK6 activity remaining in the presence of 0.01uM inhibitor
[7] = molecular target: T2, Inhibitor of nuclear factor kappa-B kinase subunit beta (Homo sapiens) (UniProt O14920); test: Percentage IKK-beta activity remaining in the presence of 0.01uM inhibitor
T2 sequence (whole entry): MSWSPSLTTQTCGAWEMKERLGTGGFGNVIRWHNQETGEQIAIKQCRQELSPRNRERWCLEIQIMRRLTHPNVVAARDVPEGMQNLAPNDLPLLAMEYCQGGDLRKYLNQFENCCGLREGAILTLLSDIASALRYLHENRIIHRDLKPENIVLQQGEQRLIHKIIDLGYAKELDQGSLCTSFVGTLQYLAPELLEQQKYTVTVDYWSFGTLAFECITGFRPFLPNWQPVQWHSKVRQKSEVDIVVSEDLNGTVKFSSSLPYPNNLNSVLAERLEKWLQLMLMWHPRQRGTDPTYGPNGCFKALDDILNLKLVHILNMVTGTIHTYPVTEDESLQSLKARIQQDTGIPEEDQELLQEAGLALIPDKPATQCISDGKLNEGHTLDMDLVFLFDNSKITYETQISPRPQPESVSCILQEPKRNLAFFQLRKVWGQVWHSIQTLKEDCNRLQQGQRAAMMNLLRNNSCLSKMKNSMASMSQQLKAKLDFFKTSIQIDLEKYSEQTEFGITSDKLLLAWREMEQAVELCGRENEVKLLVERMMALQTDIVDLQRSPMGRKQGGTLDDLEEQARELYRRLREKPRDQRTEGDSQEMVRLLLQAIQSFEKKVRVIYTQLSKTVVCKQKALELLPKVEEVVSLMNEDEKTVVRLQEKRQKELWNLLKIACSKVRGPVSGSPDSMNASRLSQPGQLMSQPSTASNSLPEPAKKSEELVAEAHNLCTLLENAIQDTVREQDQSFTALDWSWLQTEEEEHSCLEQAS

[8] = molecular target: Proto-oncogene tyrosine-protein kinase LCK (Mus musculus) (UniProt P06240); test: Percentage Lck activity remaining in the presence of 0.01uM inhibitor
[9] = molecular target: T3, Serine/threonine-protein kinase Sgk1 (Homo sapiens) (UniProt O00141); test: Percentage SGK1 activity remaining in the presence of 0.01uM inhibitor
T3 sequence (whole entry): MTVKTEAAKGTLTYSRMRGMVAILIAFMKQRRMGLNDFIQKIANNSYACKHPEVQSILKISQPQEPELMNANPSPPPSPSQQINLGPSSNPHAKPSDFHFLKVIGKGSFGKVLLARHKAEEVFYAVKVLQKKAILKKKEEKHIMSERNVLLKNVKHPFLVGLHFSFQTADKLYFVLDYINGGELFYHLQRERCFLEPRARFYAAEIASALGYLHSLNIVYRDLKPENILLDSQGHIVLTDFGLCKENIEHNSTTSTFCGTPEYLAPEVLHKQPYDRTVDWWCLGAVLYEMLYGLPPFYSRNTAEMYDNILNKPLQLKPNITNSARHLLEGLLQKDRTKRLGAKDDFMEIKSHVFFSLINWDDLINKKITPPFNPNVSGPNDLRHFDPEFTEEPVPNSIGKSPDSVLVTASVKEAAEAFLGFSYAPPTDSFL

Sequence of Maternal embryonic leucine zipper kinase (Homo sapiens) (Q14680 whole entry, looked up): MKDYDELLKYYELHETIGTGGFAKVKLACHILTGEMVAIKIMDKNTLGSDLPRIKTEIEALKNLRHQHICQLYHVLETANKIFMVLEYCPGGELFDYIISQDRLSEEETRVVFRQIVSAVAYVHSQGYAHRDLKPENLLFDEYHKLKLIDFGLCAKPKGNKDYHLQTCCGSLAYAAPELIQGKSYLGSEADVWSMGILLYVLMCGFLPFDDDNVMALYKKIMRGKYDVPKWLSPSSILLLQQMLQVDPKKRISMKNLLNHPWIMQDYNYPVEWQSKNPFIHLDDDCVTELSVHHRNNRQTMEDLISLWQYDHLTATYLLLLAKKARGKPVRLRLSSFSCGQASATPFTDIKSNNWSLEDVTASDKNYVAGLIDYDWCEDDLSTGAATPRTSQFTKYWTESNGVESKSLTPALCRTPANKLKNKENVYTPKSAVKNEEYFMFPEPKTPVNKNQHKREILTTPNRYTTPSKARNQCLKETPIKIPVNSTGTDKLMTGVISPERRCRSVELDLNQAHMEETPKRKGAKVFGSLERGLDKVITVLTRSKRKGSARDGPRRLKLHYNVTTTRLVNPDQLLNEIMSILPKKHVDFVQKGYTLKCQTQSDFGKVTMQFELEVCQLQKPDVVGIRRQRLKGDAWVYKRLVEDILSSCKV
Sequence of Proto-oncogene tyrosine-protein kinase LCK (Mus musculus) (P06240 2-509 limits assumed): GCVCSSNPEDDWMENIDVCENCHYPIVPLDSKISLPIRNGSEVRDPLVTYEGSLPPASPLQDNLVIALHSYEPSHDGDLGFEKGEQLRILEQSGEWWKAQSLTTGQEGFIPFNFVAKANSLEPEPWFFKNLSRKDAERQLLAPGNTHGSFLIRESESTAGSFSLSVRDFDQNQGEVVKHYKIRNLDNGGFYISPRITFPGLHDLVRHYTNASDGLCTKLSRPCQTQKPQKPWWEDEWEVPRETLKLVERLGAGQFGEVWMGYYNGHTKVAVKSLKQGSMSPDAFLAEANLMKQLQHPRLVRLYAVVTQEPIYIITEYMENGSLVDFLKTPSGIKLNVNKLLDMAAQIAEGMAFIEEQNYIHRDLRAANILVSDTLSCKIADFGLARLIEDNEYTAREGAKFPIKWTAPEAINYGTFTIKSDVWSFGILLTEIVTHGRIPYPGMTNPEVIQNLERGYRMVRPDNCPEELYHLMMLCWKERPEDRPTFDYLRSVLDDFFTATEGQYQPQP
Sequence of Homeodomain-interacting protein kinase 3 (Homo sapiens) (Q9H422 whole entry, looked up): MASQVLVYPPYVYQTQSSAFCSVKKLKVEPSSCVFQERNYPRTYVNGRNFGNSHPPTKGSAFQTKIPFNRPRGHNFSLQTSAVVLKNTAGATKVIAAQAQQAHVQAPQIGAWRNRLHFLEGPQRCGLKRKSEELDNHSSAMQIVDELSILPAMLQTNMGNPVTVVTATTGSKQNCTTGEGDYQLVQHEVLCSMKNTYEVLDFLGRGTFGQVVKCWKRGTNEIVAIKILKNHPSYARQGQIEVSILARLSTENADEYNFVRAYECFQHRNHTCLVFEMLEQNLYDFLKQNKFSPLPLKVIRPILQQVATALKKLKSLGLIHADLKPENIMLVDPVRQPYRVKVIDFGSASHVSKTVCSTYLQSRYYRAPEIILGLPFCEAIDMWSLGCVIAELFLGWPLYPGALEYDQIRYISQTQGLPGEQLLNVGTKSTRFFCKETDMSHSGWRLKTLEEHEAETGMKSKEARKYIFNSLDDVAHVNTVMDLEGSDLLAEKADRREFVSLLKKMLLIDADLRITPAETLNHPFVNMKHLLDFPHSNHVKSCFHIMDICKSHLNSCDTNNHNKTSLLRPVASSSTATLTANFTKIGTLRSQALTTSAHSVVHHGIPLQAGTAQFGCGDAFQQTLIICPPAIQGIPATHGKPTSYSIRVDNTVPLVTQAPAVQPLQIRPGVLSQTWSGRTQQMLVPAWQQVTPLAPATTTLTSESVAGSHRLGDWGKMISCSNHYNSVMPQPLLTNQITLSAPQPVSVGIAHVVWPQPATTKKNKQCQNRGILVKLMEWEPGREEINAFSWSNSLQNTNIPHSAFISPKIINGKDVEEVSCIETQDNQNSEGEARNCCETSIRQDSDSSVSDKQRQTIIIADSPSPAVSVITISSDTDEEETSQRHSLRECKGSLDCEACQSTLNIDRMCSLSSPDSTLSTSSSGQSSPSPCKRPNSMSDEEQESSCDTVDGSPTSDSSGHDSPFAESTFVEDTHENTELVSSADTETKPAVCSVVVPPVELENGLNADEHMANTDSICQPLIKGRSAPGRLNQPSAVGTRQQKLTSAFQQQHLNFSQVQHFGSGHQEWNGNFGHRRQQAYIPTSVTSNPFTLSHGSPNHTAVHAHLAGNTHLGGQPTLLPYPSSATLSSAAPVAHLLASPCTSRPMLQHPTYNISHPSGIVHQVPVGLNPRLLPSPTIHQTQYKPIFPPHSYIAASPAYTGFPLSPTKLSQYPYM
Sequence of Calcium/calmodulin-dependent protein kinase kinase 2 (Homo sapiens) (Q96RR4 2-588 limits assumed): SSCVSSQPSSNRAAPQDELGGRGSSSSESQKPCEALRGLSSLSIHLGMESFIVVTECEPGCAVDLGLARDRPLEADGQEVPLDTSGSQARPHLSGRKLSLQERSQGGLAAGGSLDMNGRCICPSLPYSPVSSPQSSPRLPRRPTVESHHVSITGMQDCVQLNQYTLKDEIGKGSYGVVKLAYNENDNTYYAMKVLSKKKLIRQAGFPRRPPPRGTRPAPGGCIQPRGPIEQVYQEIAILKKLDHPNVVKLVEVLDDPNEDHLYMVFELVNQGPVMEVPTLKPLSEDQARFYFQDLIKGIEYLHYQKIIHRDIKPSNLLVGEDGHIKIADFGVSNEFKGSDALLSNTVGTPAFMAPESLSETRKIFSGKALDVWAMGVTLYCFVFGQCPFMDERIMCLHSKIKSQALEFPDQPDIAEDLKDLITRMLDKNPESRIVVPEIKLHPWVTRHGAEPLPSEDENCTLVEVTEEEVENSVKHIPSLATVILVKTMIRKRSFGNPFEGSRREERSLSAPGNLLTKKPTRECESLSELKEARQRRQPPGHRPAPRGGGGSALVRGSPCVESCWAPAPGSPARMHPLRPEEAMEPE
Sequence of Serine/threonine-protein kinase PAK 6 (Homo sapiens) (Q9NQU5 whole entry, looked up): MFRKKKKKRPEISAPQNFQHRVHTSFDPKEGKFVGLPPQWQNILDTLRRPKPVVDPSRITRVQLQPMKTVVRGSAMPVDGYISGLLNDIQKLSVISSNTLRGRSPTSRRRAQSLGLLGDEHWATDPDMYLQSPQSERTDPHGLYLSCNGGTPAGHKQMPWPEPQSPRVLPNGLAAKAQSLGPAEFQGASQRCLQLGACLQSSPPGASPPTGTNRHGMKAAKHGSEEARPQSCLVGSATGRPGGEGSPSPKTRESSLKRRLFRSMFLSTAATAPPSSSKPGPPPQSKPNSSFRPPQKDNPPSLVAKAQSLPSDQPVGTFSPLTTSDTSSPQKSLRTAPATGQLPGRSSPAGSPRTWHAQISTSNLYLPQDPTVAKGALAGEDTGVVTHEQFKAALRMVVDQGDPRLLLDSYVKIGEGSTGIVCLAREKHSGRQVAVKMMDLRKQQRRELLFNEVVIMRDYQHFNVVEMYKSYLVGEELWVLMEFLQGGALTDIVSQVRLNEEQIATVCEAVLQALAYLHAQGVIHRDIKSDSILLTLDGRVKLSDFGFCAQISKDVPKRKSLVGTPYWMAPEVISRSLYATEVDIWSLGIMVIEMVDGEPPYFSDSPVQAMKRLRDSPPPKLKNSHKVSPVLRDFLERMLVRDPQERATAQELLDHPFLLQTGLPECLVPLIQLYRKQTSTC
Sequence of MAP kinase-activated protein kinase 3 (Homo sapiens) (Q16644 whole entry, looked up): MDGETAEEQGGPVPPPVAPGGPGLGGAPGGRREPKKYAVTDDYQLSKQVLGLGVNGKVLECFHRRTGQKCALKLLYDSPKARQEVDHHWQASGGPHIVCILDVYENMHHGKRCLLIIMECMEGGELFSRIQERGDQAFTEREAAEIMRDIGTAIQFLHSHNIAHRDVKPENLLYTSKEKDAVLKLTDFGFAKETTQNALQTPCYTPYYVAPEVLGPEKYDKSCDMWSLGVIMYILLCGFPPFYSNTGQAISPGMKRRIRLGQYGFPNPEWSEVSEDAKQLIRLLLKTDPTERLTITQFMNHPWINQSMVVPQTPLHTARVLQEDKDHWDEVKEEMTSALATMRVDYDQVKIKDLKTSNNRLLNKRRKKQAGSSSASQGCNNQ

SMILES | Activity [1] [%] | Activity [2] [%] | Activity [3] [%] | Activity [4] [%] | Activity (Rattus norvegicus) [%] | Activity [5] [%] | Activity [6] [%] | Activity [7] [%] | Activity [8] [%] | Activity [9] [%] | Activity ([2]; filed as antagonist) [%] | Activity (Rattus norvegicus; filed as antagonist) [%] | Activity ([6]; filed as antagonist) [%] | Activity ([8]; filed as antagonist) [%]
Cn1c2ccccc2c2c3c(c4c5ccccc5n(CCC#N)c4c21)CNC3=O | 74 |  |  |  |  |  |  |  |  |  |  |  |  | 
O=C(NCCCNc1nc(Nc2cccc(NC(=O)N3CCCC3)c2)ncc1I)c1cccs1 | 94 | 82 | 103 | 105 | 52 | 95 | 92 | 108 | 97 | 87 |  |  |  | 
CC(C)CCN1c2nc(Nc3cc(F)c(O)c(F)c3)ncc2N(C)C(=O)C1C (configuration not stated) | 104 |  |  |  |  |  |  |  |  |  |  |  |  | 
Cn1cc(C2=C(c3cn(CCCSC(=N)N)c4ccccc34)C(=O)NC2=O)c2ccccc21 | 78 |  |  |  |  |  |  |  |  |  |  |  |  | 
Cc1n[nH]c2ccc(-c3cncc(OC[C@@H](N)Cc4c[nH]c5ccccc45)c3)cc12 | 71 | 83 | 91 | 79 | 84 | 96 | 87 | 93 | 97 | 78 |  |  |  | 
CN[C@@H]1C[C@H]2O[C@@](C)([C@@H]1OC)n1c3ccccc3c3c4c(c5c6ccccc6n2c5c31)C(=O)N[C@H]4O (stereo in doubt) |  |  | 107 | 92 |  | 53 |  | 86 |  | 83 | 21 | 9 | 35 | 50
